Results from patent publication EP1377579B1 (Aventis Pharmaceuticals Inc., priority 2000, dated 2002).
Counter-ions that a name gives are not always drawn.

Legend:
NCI-H460 = assay: In vitro proliferation assay (MTT), NCI-H460; type: cell-based; conditions: Homo sapiens, NCI-H460; MTT assay; value (SD, n) where given; read-out: H-460 Lung (IC50 µM)
Summary of the method: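 Overnight-recovered cultures (1000–2500 cells/well) were treated with compound for 3 days and then given MTT at 37 C for 2–4 hr. Dye was extracted with DMSO and read at 570 nm. IC50s were fitted to the absorbance-versus-concentration data.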

PC-3 = assay: In vitro proliferation assay (MTT), PC-3; type: cell-based, human; conditions: Homo sapiens, PC-3, MTT assay; value (SD, n) where given; read-out: PC-3 Prostate (IC50 µM)
Summary of the method: (§1)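 Tetrazolium (MTT) reduction measures live cells remaining after 3 days with test compound, following overnight attachment at 1000–2500 cells/well. Dye is taken up in DMSO and read at 570 nm.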

Colo-205 = assay: In vitro proliferation assay (MTT), Colo-205; type: cell-based; conditions: Homo sapiens, COLO 205; MTT assay; value (SD, n) where given; read-out: Colo-205 Colon (IC50 µM)
Summary of the method: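 After 3 days of compound exposure, MTT was added to Colo-205 cultures for 2–4 h at 37 °C. Formazan was dissolved in DMSO and absorbance read at 570 nm. Cells had been plated at 1000–2500/well and left to recover overnight; IC50 values came from the raw readings.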

cdk4/cyclin D1 = cdk4/cyclin D1 (Homo sapiens, UniProt P11802); assay: Cyclin-dependent kinase assay, cdk4/cyclin D1; type: biochemical; conditions: cyclin D1/cdk4; GST-pRb substrate, 10 µM ATP
cdk4/cyclin D1, sequence (P11802 whole entry): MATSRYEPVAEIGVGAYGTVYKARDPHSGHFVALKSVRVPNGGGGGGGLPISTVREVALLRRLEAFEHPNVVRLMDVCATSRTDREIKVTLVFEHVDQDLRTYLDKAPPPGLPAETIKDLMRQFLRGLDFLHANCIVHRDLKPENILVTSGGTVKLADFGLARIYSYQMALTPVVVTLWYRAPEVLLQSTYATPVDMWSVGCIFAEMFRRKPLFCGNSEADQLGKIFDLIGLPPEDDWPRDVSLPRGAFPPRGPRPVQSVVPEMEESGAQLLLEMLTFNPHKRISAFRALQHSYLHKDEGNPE
cdk4/cyclin D1, sequence (P24385 whole entry partner): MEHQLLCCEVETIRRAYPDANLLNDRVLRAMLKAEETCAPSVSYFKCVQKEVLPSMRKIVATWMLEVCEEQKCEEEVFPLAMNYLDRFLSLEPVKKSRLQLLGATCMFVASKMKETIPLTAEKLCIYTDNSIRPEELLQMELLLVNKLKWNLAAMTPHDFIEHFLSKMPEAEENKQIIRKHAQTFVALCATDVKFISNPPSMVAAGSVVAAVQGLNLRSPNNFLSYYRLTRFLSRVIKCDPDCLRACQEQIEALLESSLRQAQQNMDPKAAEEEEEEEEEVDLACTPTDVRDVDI

Jurkat = assay: In vitro proliferation assay (MTT), Jurkat; type: cell-based; conditions: Homo sapiens, MTT assay, value (SD, n) where given, read-out: Jurkat Leuk. (IC50 µM)
Experimental: (§2) The proliferation of tumor cells can be measured using a tetrazolium salt-based assay known as the MTT (3-[4,5-Dimethylthiazol-2-yl]-2,5-diphenyltetrazolium bromide) assay. The proliferation test is performed essentially as described by Carmichael et al., Cancer Res. 47: 936-942, 1987. For the assay, the cell lines are plated onto 96 well plates at 1000 to 2500 cells/well (depending on the properties of the individual cell lines), left to attach and recover overnight. […] After 3 days, the cells are incubated with MTT dye (3-[4,5-Dimethylthiazol-2-yl]-2,5-diphenyltetrazolium bromide, Sigma # M5655, 10 mg/ml in Hank's Buffered Saline) to estimate the amount of live cells remaining vs. concentration for the test compounds. Specifically, MTT solution is added to a final concentration of […] and the plates incubated at 37 C for 2 to 4 hr. The MTT and culture medium is then removed from the cultures and 200 µl of DMSO is added to solubilize the dye from the cell layer. The absorbance at 570 nm is determined for each culture using a Spectramax plate reader (Molecular Devices).
(§3) IC50s were determined from the raw data from either the MTT or SRB assays.
(§4) All of the cell lines were obtained from American Type Tissue Collection, with the ATCC accession number in parentheticals. MCF-7 and MDA-MB-231 cells were grown in improved minimum essential medium (Biofluids) without phenol red, supplemented with 5 % fetal bovine serum, 0.01 mg/ml gentamicin and 3 mM L-glutamine. All of the other cell lines were grown in RPMI 1640 medium (Life Technologies) supplemented with 5 % fetal bovine serum, 0.01 mg/ml gentamicin and 3 mM L-glutamine TABLE 3

cdk2/cyclin E = cdk2/cyclin E (Homo sapiens, UniProt P24941); assay: Cyclin-dependent kinase assay, cdk2/cyclin E; conditions: CDK2 IC50, nM, GST-pRb substrate, 10 µM ATP
HL-60 = assay: In vitro proliferation assay (MTT), HL-60; type: cell-based; conditions: Homo sapiens, HL-60; MTT assay; value (SD, n) where given; read-out: HL-60 Leuk. (IC50 µM)
Experimental: as §2, §3, §4

MDA-MB-435 = assay: In vitro proliferation assay (MTT), MDA-MB-435; type: cell-based, human; conditions: Homo sapiens, MDA-MB-435, MTT assay; value (SD, n) where given; read-out: MB-435 Breast (IC50 µM)
Summary of the method: as §1

cdk1/cyclin B = cdk1/cyclin B (Homo sapiens, UniProt P06493); assay: Cyclin-dependent kinase assay, cdk1/cyclin B; conditions: CDK1 IC50, nM, Histone H1, 10 µM ATP
cdk1/cyclin B, sequence (P06493 whole entry): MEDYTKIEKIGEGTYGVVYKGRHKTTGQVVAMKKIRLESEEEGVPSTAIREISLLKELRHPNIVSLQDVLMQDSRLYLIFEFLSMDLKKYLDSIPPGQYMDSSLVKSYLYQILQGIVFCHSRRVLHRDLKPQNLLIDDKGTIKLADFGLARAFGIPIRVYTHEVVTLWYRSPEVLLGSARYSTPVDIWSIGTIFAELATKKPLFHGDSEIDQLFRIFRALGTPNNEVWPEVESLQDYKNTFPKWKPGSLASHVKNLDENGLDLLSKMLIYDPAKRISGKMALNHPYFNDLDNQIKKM
cdk1/cyclin B, sequence (P14635 whole entry partner): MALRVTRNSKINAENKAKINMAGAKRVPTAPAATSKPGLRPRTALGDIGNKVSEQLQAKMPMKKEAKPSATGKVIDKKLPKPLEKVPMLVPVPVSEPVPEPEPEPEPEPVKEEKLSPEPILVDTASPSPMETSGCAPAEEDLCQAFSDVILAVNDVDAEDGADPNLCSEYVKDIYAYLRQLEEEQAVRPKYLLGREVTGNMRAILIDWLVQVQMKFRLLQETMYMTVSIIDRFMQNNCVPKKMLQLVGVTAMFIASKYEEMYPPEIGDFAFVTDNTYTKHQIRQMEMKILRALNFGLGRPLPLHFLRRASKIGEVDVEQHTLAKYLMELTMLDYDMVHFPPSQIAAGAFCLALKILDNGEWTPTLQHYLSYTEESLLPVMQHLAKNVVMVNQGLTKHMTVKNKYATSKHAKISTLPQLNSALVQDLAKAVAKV

IC50 (NCI-H460) [µM] | IC50 (PC-3) [µM] | IC50 (Colo-205) [µM] | IC50 (cdk4/cyclin D1) [nM] | IC50 (Jurkat) [µM] | IC50 (cdk2/cyclin E) [nM] | IC50 (HL-60) [µM] | IC50 (MDA-MB-435) [µM] | IC50 (cdk1/cyclin B) [nM] | Structure (SMILES)
0.12 | 0.15 | 0.04 | 590 | 0.21 | 35 | < 0.02 | 0.21 | 74 | N[C@H]1CC[C@H](Nc2nc(NC3CCN(S(=O)(=O)c4ccc(C(F)(F)F)cc4[N+](=O)[O-])CC3)c3ncn(C4CCCC4)c3n2)CC1 [compound 132, trans-N^2-(4-Amino-cyclohexyl)-9-cyclopentyl-N^6-[1-(2-nitro-4-trifluoromethyl-benzenesulfonyl)-piperidin-4-yl]-9H-purine-2,6-diamine dihydrochloride]
0.33 | 0.23 | 0.2 | 673 | 0.53 | 48 | < 0.02 | 0.22 | 137 | N[C@H]1CC[C@H](Nc2nc(NC3CCN(C(=O)Nc4ccc(F)cc4C(F)(F)F)CC3)c3ncn(C4CCCC4)c3n2)CC1 [compound 202, trans-4-[2-(4-Amino-cyclohexylamino)-9-cyclopentyl-9H-purin-6-ylamino]-piperidine-1-carboxylic acid (4-fluoro-2-trifluoromethyl-phenyl)-amide dihydrochloride]
0.12 | 0.1 | < 0.02 | 305 | 0.17 | 174 | 0.02 | 0.15 | 32 | N[C@H]1CC[C@H](Nc2nc(NC3CCN(C(=O)Nc4cc(Cl)cc(Cl)c4)CC3)c3ncn(C4CCCC4)c3n2)CC1 [compound 182, trans-4-[2-(4-Amino-cyclohexylamino)-9-cyclopentyl-9H-purin-6-ylamino]-piperidine-1-carboxylic acid (3,5-dichloro-phenyl)-amide dihydrochloride]
0.23 | 0.2 | 0.05 | 682 | 0.16 | 114 | 0.04 | 0.12 | 12 | N[C@H]1CC[C@H](Nc2nc(NC3CCN(C(=O)Nc4ccc(OC(F)(F)F)cc4)CC3)c3ncn(C4CCCC4)c3n2)CC1 [compound 175, trans-4-[2-(4-Amino-cyclohexylamino)-9-cyclopentyl-9H-purin-6-ylamino]-piperidine-1-carboxylic acid (4-trifluoromethoxy-phenyl)-amide dihydrochloride]
0.28 | 0.16 | 0.03 | 465 | 0.21 | 56 | < 0.02 | 0.09 | 11 | CSc1ccc(NC(=O)N2CCC(Nc3nc(N[C@H]4CC[C@H](N)CC4)nc4c3ncn4C3CCCC3)CC2)cc1 [compound 186, trans-4-[2-(4-Amino-cyclohexylamino)-9-cyclopentyl-9H-purin-6-ylamino]-piperidine-1-carboxylic acid (4-methylsulfanyl-phenyl)-amide dihydrochloride]
0.29 | 0.2 | 0.07 | 49 | 0.22 | 54 | 0.15 | 0.26 | 62 | N[C@H]1CC[C@H](Nc2nc(NC3CCN(S(=O)(=O)c4cccc5ccccc45)CC3)c3ncn(C4CCCC4)c3n2)CC1 [compound 123, trans-N^2-(4-Amino-cyclohexyl)-9-cyclopentyl-N^6-[1-(naphthalene-1-sulfonyl)-piperidin-4-yl]-9H-purine-2,6-diamine dihydrochloride]
0.54 | 0.3 | 0.17 | 733 | 0.5 | 51 | < 0.02 | 0.22 | 10 | N[C@H]1CC[C@H](Nc2nc(NC3CCN(C(=O)Nc4ccc(F)c(C(F)(F)F)c4)CC3)c3ncn(C4CCCC4)c3n2)CC1 [compound 203, trans-4-[2-(4-Amino-cyclohexylamino)-9-cyclopentyl-9H-purin-6-ylamino]-piperidine-1-carboxylic acid (4-fluoro-3-trifluoromethyl-phenyl)-amide dihydrochloride]
0.29 | 0.25 | 0.04 | 1300 | 0.33 | 548 | 0.06 | 0.24 | 67 | N[C@H]1CC[C@H](Nc2nc(NC3CCN(C(=O)NC45CC6CC(CC(C6)C4)C5)CC3)c3ncn(C4CCCC4)c3n2)CC1 (relative stereo) [compound 181, trans-4-[2-(4-Amino-cyclohexylamino)-9-cyclopentyl-9H-purin-6-ylamino]-piperidine-1-carboxylic acid adamantan-1-ylamide dihydrochloride]
0.29 | 0.26 | 0.05 | 50 | 0.13 | 34 | < 0.02 | 0.17 | 13 | N[C@H]1CC[C@H](Nc2nc(NC3CCN(C(=O)Nc4ccc(Cl)c(Cl)c4)CC3)c3ncn(C4CCCC4)c3n2)CC1 [compound 209, trans-4-[2-(4-Amino-cyclohexylamino)-9-cyclopentyl-9H-purin-6-ylamino]-piperidine-1-carboxylic acid (3,4-dichloro-phenyl)-amide dihydrochloride]
0.4 | 0.33 | 0.02 | 702 | 0.41 | 16 | 0.07 | 0.2 | 4 | N[C@H]1CC[C@H](Nc2nc(NC3CCN(C(=O)Nc4cccc(C(F)(F)F)c4)CC3)c3ncn(C4CCCC4)c3n2)CC1 [compound 159, trans-4-[2-(4-Amino-cyclohexylamino)-9-cyclopentyl-9H-purin-6-ylamino]-piperidine-1-carboxylic acid (3-trifluoromethyl-phenyl)-amide dihydrochloride]
0.2 | 0.17 | 0.05 | 338 | 0.19 | 64 | < 0.02 | 0.11 | 17 | Cc1ccc(NC(=O)N2CCC(Nc3nc(N[C@H]4CC[C@H](N)CC4)nc4c3ncn4C3CCCC3)CC2)cc1 [compound 183, trans-4-[2-(4-Amino-cyclohexylamino)-9-cyclopentyl-9H-purin-6-ylamino]-piperidine-1-carboxylic acid (4-methyl-phenyl)-amide dihydrochloride]
0.2 | 0.21 | 0.1 | 526 | 0.18 | 23 | 0.06 | 0.24 | 75 | C=CCOC(=O)N1CCC(Nc2nc(N[C@H]3CC[C@H](N)CC3)nc3c2ncn3C2CCCC2)CC1 [compound 95, trans-4-[2-(4-Amino-cyclohexylamino)-9-cyclopentyl-9H-purin-6-ylamino]-piperidine-1-carboxylic acid allyl ester dihydrochloride]
